Data published in patent US12692253B2, “Antimicrobial compounds and methods” (Curza Global, LLC, priority 2019, dated 2026).
Where two headings read alike, the source gives them in different places.

Assays:
[1] = target: Rabbit Reticulocyte Lysate (eukaryotic protein synthesis); assay: Rabbit reticulocyte lysate luciferase assay (inhibition of eukaryotic protein synthesis); assay type: biochemical; conditions: read-out: Rabbit reticulocyte IC50 (μM/% inhib.)
In short: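 Percent inhibition calculated against water-only controls from luminescence; background set by lysate lacking RNA. Compounds, 8-point 2-fold titration, incubated 90 minutes at 30° C with nuclease-treated rabbit reticulocyte lysate programmed with luciferase control RNA plus complete amino acids.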

[2] = system: E. coli S30 extract (bacterial protein synthesis); assay: E. coli S30 extract coupled transcription-translation luciferase assay (inhibition of bacterial protein synthesis); assay type: biochemical; conditions: read-out: S30 IC50 (μM/% inhib.)
In short: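 Luciferase luminescence quantified inhibition of protein synthesis relative to water controls, with no-DNA reactions giving background. Compounds in 2-fold serial dilution (8 levels) were incubated 1 hour at 37 °C with E. coli S30 extract, amino acids and pBESTluc plasmid, then chilled to stop.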

[3] = system: S. aureus (Sa); assay: Broth microdilution minimum inhibitory concentration (MIC), CLSI; assay type: cell-based; conditions: for MIC: Staphylococcus aureus, read-out: Sa + bicarb MIC
In short: (§1)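 Modified CLSI method: CAMHB (± bicarbonate 6.25/25 mM or 0-50% human serum), 8-point two-fold series, triplicates, 5×10^4 CFU/well.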

[4] = system: A. baumannn (Ab); assay: as above; assay type: cell-based; conditions: for MIC: read-out: Ab + bicarb MIC
In short: as §1

[5] = system: E. faecalis (Ef); assay: as above; assay type: cell-based; conditions: for MIC: Enterococcus faecalis, read-out: Ef + bicarb MIC
In short: as §1

[6] = system: P. aeruginosa (Pa); assay: as above; assay type: cell-based; conditions: for MIC: Pseudomonas aeruginosa, read-out: Pa MIC + bicarb
In short: as §1

[7] = system: E. coli (Ec); assay: as above; assay type: cell-based; conditions: for MIC: Escherichia coli, read-out: E. coli + bicarb MIC
In short: as §1

[8] = growth medium with sodium bicarbonate
[9] = A. baumannn, growth medium with sodium bicarbonate
[10] = class by IC50 or % inhibition @ 1 μM
[11] = growth medium supplemented with sodium bicarbonate

| Compound | IC50 ([1]; % inhibition @ 1 μM) [µM] | IC50 ([2]; % inhibition @ 1 μM) [µM] | Sa + bicarb MIC [3, 8] | Ab + bicarb MIC [4, 9] | Ef + bicarb MIC [5, 8] | Pa MIC + bicarb [6, 8] | E. coli + bicarb MIC [7, 8] | MIC [3, 8] [µg/mL] | MIC [4, 9] [µg/mL] | MIC [5, 8] [µg/mL] | MIC [6, 8] [µg/mL] | MIC [7, 8] [µg/mL] | IC50 [1, 10] [µM] | IC50 [2, 10] [µM] | MIC [3, 11] [µg/mL] | MIC ([4]; Acinetobacter baumannii) [µg/mL] | MIC [5, 11] [µg/mL] | MIC [6, 11] [µg/mL] | MIC [7, 11] [µg/mL] |
| --- | --- | --- | --- | --- | --- | --- | --- | --- | --- | --- | --- | --- | --- | --- | --- | --- | --- | --- | --- |
| CCC(Cc1ccc(-n2ccc(NC(=O)N3CCN(C(=O)C(C)(C)N)CC3)nc2=O)cc1)N1CC2CCC(N)CC2C1 (stereo not shown) [Compound 245] | ≥ 1 | 0.5 to 1 | ++ (An MIC value (μg/mL) that is 8 μg/mL or greater and less than 32 μg/mL) | + (An MIC (μg/mL) value that is 32 μg/mL or greater) | + (An MIC (μg/mL) value that is 32 μg/mL or greater) | + (An MIC (μg/mL) value that is 32 μg/mL or greater) | +++ (An MIC value (μg/mL) that is less than 8 μg/mL) | – | – | – | – | – | – | – | – | – | – | – | – |
| CC(C)(N)C(=O)N1CCN(C(=O)Nc2ccn(-c3ccc(CCN4C[C@@H]5[C@H](C4)[C@H]5C(N)CO)cc3)c(=O)n2)CC1 (stereo partly shown) [Compound 210] | ≥ 1 | 0.5 to 1 | – | – | – | – | – | < 8 | > 32 | 8 to 32 | > 32 | < 8 | – | – | – | – | – | – | – |
| CCC(Cc1ccc(-n2ccc(NC(=O)N3CCN(C(=O)C(C)(C)N)CC3)nc2=O)cc1)N1CC2CCC(N)CC2C1 (stereo not shown) [Compound 218] | ≥ 1 | < 0.5 | – | – | +++ (An MIC value (μg/mL) that is less than 8 μg/mL) | – | – | < 8 | > 32 | – | > 32 | < 8 | – | – | – | – | – | – | – |
| CC(C)(N)C(=O)N1CCN(C(=O)Nc2ccn(-c3ccc(C(N)C(=O)N4C[C@@H]5[C@@H](CN)[C@@H]5C4)cc3)c(=O)n2)CC1 (stereo partly shown) [Compound 137] | – | – | – | – | – | – | – | – | – | – | – | – | ≥ 1 | 0.5 to 1 | > 32 | > 32 | > 32 | > 32 | > 32 |
| CCN(Cc1ccc(-n2ccc(NC(=O)N3CCN(C(=O)C(C)(C)N)CC3)nc2=O)cc1)C12CC(CN)(C1)C2 [Compound 175] | ≥ 1 | ≥ 1 | – | – | – | – | – | < 8 | > 32 | < 8 | > 32 | < 8 | – | – | – | – | – | – | – |
| CC(Cc1ccc(-n2ccc(NC(=O)N3CCN(C(=O)C(C)(C)N)CC3)nc2=O)cc1)[N+]1(C)C[C@@H]2[C@@H](CN)[C@@H]2C1 (stereo partly shown) [Compound 220] | ≥ 1 | < 0.5 | – | – | – | – | – | < 8 | > 32 | 8 to 32 | > 32 | < 8 | – | – | – | – | – | – | – |
| CCC(Cc1ccc(-n2ccc(NC(=O)N3CCN(C(=O)[C@@](C)(N)CO)CC3)nc2=O)cc1)N1C[C@@H]2[C@@H](CN)[C@@H]2C1 (stereo partly shown) [Compound 151] | – | – | – | – | – | – | – | – | – | – | – | – | ≥ 1 | < 0.5 | < 8 | 8 to 32 | < 8 | 8 to 32 | < 8 |
| CC(C)(N)C(=O)N1CCN(C(=O)Nc2ccn(-c3ccc(CCN4CC5(CCC5N)C4)cc3)c(=O)n2)CC1 (stereo not shown) [Compound 107] | – | – | – | – | – | – | – | – | – | – | – | – | ≥ 1 | ≥ 1 | < 8 | > 32 | 8 to 32 | > 32 | < 8 |
| CC(COc1ccc(-n2ccc(NC(=O)N3CCN(C(=O)C(C)(C)N)CC3)nc2=O)cc1)N1C[C@@H]2[C@@H](CN)[C@@H]2C1 (stereo partly shown) [Compound 188] | ≥ 1 | < 0.5 | – | – | – | – | – | < 8 | 8 to 32 | < 8 | 8 to 32 | < 8 | – | – | – | – | – | – | – |
| CC(C)(N)C(=O)N1CCN(C(=O)Nc2ccn(-c3ccc(CN4CC5CC(N)C5C4)cc3)c(=O)n2)CC1 (stereo not shown) [Compound 42] | – | – | – | – | – | – | – | – | – | – | – | – | ≥ 1 | < 0.5 | 8 to 32 | > 32 | 8 to 32 | > 32 | < 8 |
| CC(C)(N)C(=O)N1CCN(C(=O)Nc2ccn(-c3ccc(CCN4CC5CC5(CN)C4)c(F)c3)c(=O)n2)CC1 (stereo not shown) [Compound 123] | – | – | – | – | – | – | – | – | – | – | – | – | ≥ 1 | < 0.5 | < 8 | > 32 | < 8 | > 32 | < 8 |
| CC(Cc1ccc(-n2ccc(NC(=O)N3CCN(C(=O)[C@H]4C[C@H](N)C4)CC3)nc2=O)cc1)N1C[C@@H]2[C@@H](CN)[C@@H]2C1 (stereo partly shown) [Compound 234] | ≥ 1 | ≥ 1 | – | – | – | – | – | < 8 | > 32 | > 32 | > 32 | < 8 | – | – | – | – | – | – | – |
| CC(C)[C@@H](N)C(=O)N1CCN(C(=O)Nc2ccn(-c3ccc(CC(C)N4C[C@@H]5[C@@H](CN)[C@@H]5C4)cc3)c(=O)n2)CC1 (stereo partly shown) [Compound 230] | ≥ 1 | ≥ 1 | – | – | – | – | – | 8 to 32 | > 32 | > 32 | > 32 | < 8 | – | – | – | – | – | – | – |
| CC(Cc1ccc(-n2ccc(NC(=O)N3CCN(C(=O)C(C)(C)N)CC3)nc2=O)cc1)N1CCC2(CC(N)C2)C1 (stereo not shown) [Compound 225] | ≥ 1 | 0.5 to 1 | – | – | +++ (An MIC value (μg/mL) that is less than 8 μg/mL) | – | – | < 8 | > 32 | – | > 32 | < 8 | – | – | – | – | – | – | – |
| CCC(Cc1ccc(-n2ccc(NC(=O)N3CCN(C(=O)C(C)(C)N)CC3)nc2=O)cc1)N1CC2CCC(N)C2C1 (stereo not shown) [Compound 217] | ≥ 1 | < 0.5 | – | – | – | – | – | < 8 | > 32 | < 8 | > 32 | < 8 | – | – | – | – | – | – | – |
| CC(Cc1ccc(-n2ccc(NC(=O)N3CCN(C(=O)C(C)(C)N)CC3)nc2=O)cc1)N1CCC2(CC1)CNC2 (stereo not shown) [Compound 163] | ≥ 1 | ≥ 1 | – | – | – | – | – | < 8 | > 32 | > 32 | > 32 | < 8 | – | – | – | – | – | – | – |
| CC(Cc1ccc(-n2ccc(NC(=O)N3CCN(C(=O)C(C)(C)N)CC3)nc2=O)cc1)N1C[C@@H]2[C@H](C1)[C@H]2C(C)(C)N (stereo partly shown) [Compound 205] | ≥ 1 | ≥ 1 | – | – | – | – | – | 8 to 32 | > 32 | > 32 | > 32 | 8 to 32 | – | – | – | – | – | – | – |
| CC(C)(N)C(=O)N1CCN(C(=O)Nc2ccn(-c3ccc(CN4CCC5(CC4)CC(N)C5)cc3)c(=O)n2)CC1 [Compound 33] | – | – | – | – | – | – | – | – | – | – | – | – | ≥ 1 | < 0.5 | < 8 | 8 to 32 | < 8 | 8 to 32 | < 8 |
| CC(C)(N)C(=O)N1CCN(C(=O)Nc2ccn(-c3ccc(CN4C[C@@H]5C([C@H](N)CO)[C@@H]5C4)cc3)c(=O)n2)CC1 (stereo partly shown) [Compound 207] | ≥ 1 | < 0.5 | – | – | – | – | – | < 8 | > 32 | 8 to 32 | > 32 | < 8 | – | – | – | – | – | – | – |
| C[C@@H]1CN(C(=O)C(C)(C)N)CCN1C(=O)Nc1ccn(-c2ccc(CN3C[C@@H]4[C@@H](N)[C@@H]4C3)cc2)c(=O)n1 [Compound 28] | – | – | – | – | – | – | – | – | – | – | – | – | ≥ 1 | < 0.5 | < 8 | > 32 | < 8 | > 32 | < 8 |
| CC(C)(N)C(=O)N1CCN(C(=O)Nc2ccn(-c3cccc(CCN4CC5CCC(C4)C5N)c3)c(=O)n2)CC1 (stereo not shown) [Compound 113] | – | – | – | – | – | – | – | – | – | – | – | – | ≥ 1 | ≥ 1 | > 32 | > 32 | > 32 | > 32 | < 8 |
| CCN(C(C)Cc1ccc(-n2ccc(NC(=O)N3CCN(C(=O)C(C)(C)N)CC3)nc2=O)cc1)C12CC(N)(C1)C2 (stereo not shown) [Compound 198] | ≥ 1 | ≥ 1 | – | – | – | – | – | 8 to 32 | > 32 | > 32 | > 32 | 8 to 32 | – | – | – | – | – | – | – |
| CC(C)(N)C(=O)N1CCN(C(=O)Nc2ccn(-c3ccc(OCCN4C[C@@H]5[C@@H](CN)[C@@H]5C4)cc3)c(=O)n2)CC1 [Compound 187] | ≥ 1 | < 0.5 | – | – | – | – | – | < 8 | 8 to 32 | < 8 | 8 to 32 | < 8 | – | – | – | – | – | – | – |
| CC(C)(N)C(=O)N1CCN(C(=O)Nc2ccn(-c3ccc(CCN4CC5CC5(CN)C4)cc3)c(=O)n2)CC1 (stereo not shown) [Compound 117] | – | – | – | – | – | – | – | – | – | – | – | – | ≥ 1 | < 0.5 | < 8 | 8 to 32 | < 8 | 8 to 32 | < 8 |
| CC(C)(N)C(=O)N1CCN(C(=O)Nc2ccn(-c3ccc(CCCN4C[C@@H]5[C@@H](CN)[C@@H]5C4)cc3)c(=O)n2)CC1 [Compound 185] | ≥ 1 | ≥ 1 | – | – | – | – | – | < 8 | > 32 | 8 to 32 | > 32 | < 8 | – | – | – | – | – | – | – |
